Here are results for two compounds from patent US20260199496A1, “LINKER, LINKER-CONTAINING ANTIBODY DRUG CONJUGATE, AND PREPARATION METHOD THEREFOR AND USE THEREOF” (CHENGDU CHIPSCREEN NEWWAY BIOSCIENCES CO., LTD., priority 2022, published 2026).

For assay [1], the system named is CT26 hPD-L1-EX cells. Kind of assay: Inhibition of CT26 hPD-L1-EX cell proliferation (MTS). To be noted: replicate wells; for Inhibition % / OD490: 5 μM, 48 h. Format: cell-based. The protocol: (1) CT26 hPD-L1-EX cells were collected, and 20 μL was taken for cell counting. (2) The cells were resuspended to 0.5×10^5 cells/mL and 0.5×10^5 cells/mL (5 mL each). (3) The cell suspensions were respectively added to two 96-well plates at 50 μL/well, followed by overnight culture at 37° C. with 5% CO2. (4) The ADC sample was diluted according to predetermined concentrations and added to the well plates at 100 μL/well. (5) The cells were cultured at 37° C. with 5% CO2 for 48 h. (6) 50 μL of culture medium was first aspirated and discarded, and then an MTS reagent was added at 20 μL/well. The cells were cultured at 37° C. with 5% CO2 for another 1-4 h. (7) Readings were taken at 490 nm.

For assay [2], the system named is CT26 hPD-L1-EX cells. Kind of assay: Inhibition of CT26 hPD-L1-EX cell proliferation (CCK8). Format: cell-based. To be noted: 2 days, CCK8, replicate wells; for Inhibition % / OD450: 10 μM. On the procedure: (1) CT26 hPD-L1-EX cells were collected, and 20 μL was taken for cell counting. (2) The cells were resuspended to 2×10^5 cells/mL. (3) The cell suspension was added to a 96-well plate at 50 μL/well (1×10^4 cells/well), followed by overnight culture at 37° C. with 5% CO2. (4) The next day, the 96-well plate was taken out. The test sample was diluted with complete medium containing 10% FBS and then added to the plate at 50 µL/well to achieve a final sample concentration of 10 μM. The day of test sample addition was designated as day 0. The cells were cultured at 37° C. with 5% CO2 for another 2 days. (5) Day 2: The cell growth status was observed under a microscope, and then CCK8 was added at 10 μL/well. The cells were then cultured at 37° C. with 5% CO2 for another 4 h. (6) Absorbance values at 450 nm (OD450) were measured in real-time using a microplate reader.

Assay [3] relates to A375-hPDL1-Luciferase cells. Kind of assay: Inhibition of A375 in co-culture with human PBMCs (luciferase). To be noted: PBMC:A375 E:T 5:1, Matrigel, 6 days. Format: cell-based. On the procedure:
Cryopreserved PBMCs were taken out from a liquid nitrogen tank and added to 8 mL of pre-heated RPMI 1640 medium, and the mixture was centrifuged at 500 g for 10 min. The supernatant was discarded, and the PBMCs were resuspended in a small amount of RPMI 1640 medium. Then, the cell suspension was 10-fold diluted, and 20 μL of dilution was taken for cell counting. The cells were resuspended to 5E6 cells/mL. The A375-hPDL1-Luciferase cell suspension was collected, and 20 μL was taken for cell counting. The cells were resuspended to 1E6 cells/mL. The PBMC and A375-hPDL1-Luciferase cell suspensions were mixed at equal volumes to prepare a cell mixture with an E:T ratio of 5:1, and the mixture was adjusted to a total volume of 1500 L using RPMI 1640 complete medium. Matrigel was thawed on ice, and 1500 L of the thawed Matrigel was mixed with the cell mixture. The resulting mixture was added to a black 384-well plate at 20 μL/well, which was then placed at 37° C. for 10 min for solidification. […] The dilutions were added to the 384-well plate at 30 μL/well, and the cells were cultured at 37° C. with 5% CO2 for 6 days. Then, the 384-well plate was taken out, and Bio-Lite Luciferase Assay System was added at 20 μL/well. The mixture was incubated for 5-10 min and then assayed using a multi-mode microplate reader. The results are shown in FIG. 31, FIG. 32, and Table 7.

Assay [4] deals with hPD-L1-his (Homo sapiens, UniProt Q9NZQ7). Kind of assay: SPR (Biacore T200) affinity for hPD-L1-his. To be noted: 1:1 binding model.
Method: The procedures were as follows: A CM5 chip was activated with N-hydroxysuccinimide (NHS) and 1-ethyl-3-(3-dimethylaminopropyl)carbodiimide hydrochloride (EDC) at a 1:1 (v/v) ratio. Then, an anti-his antibody was immobilized, and the chip was blocked. 1 g/mL hPD-L1-his was captured onto the chip surface. […] The program was set. The samples were then loaded, and the program was executed. Data were analyzed using the Biacore Evaluation Software with the 1:1 binding model for kinetic fitting.
For assay [5], the target named is Cyno PD-L1-his. Kind of assay: SPR (Biacore T200) affinity for Cyno PD-L1-his. More on the design: species or system cynomolgus monkey. To be noted: ligand Cyno PD-L1-His, 1:1 binding model. On the procedure:
(§1) […] Cyno PD-L1-his was captured onto the chip surface. The antibody-drug conjugate samples and the naked antibody sample were 2-fold diluted with 1×PBST to give a total of 7 concentration points, with the sample concentrations all being 25 nM-0.39 nM. The program was set. The samples were then loaded, and the program was executed. Data were analyzed using the Biacore Evaluation Software with the 1:1 binding model for kinetic fitting. The above steps were repeated. 2 μg/mL hPD-L1-his, 5 μg/mL mPD-L1-his, and 5 µg/mL Rat PD-L1-his were captured onto the chip surface separately. The above 4 samples were 2-fold diluted with 1×PBST. […] The program was set. The samples were then loaded, and the program was executed. Data were analyzed using the Biacore Evaluation Software with the 1:1 binding model for kinetic fitting.

Assay [6] concerns the target mPD-L1-his (Mus musculus, UniProt Q9EP73). Kind of assay: SPR (Biacore T200) affinity for mPD-L1-his. To be noted: ligand mPD-L1-His, 1:1 binding model.
Method: The program was set. The samples were then loaded, and the program was executed. Data were analyzed using the Biacore Evaluation Software with the 1:1 binding model for kinetic fitting. The above steps were repeated. 2 μg/mL hPD-L1-his, 5 μg/mL mPD-L1-his, and 5 g/mL Rat PD-L1-his were captured onto the chip surface separately. The above 4 samples were 2-fold diluted with 1×PBST. […] The program was set. The samples were then loaded, and the program was executed. Data were analyzed using the Biacore Evaluation Software with the 1:1 binding model for kinetic fitting.
Assay [7] concerns the target Rat PD-L1-his (Rattus norvegicus, UniProt D4AE25). Kind of assay: SPR (Biacore T200) affinity for Rat PD-L1-his. To be noted: ligand Rat-PD-L1-His, 1:1 binding model. On the procedure:
as §1

Assay [8] concerns NCI-H292 cells. Kind of assay: Internalization in human lung cancer cell line NCI-H292. Format: cell-based. To be noted: NCI-H292, 150 nM, 2 h, 4 h, 22 h; FIG. 28. On the procedure:
(1) NCI-H292 cells were collected, and 20 µL was taken for cell counting. (2) The cells were resuspended to 6×10^6 cells/mL, and the cell suspension was added into two 1.5-mL EP tubes at 100 μL/tube. (3) Diluted antibody-drug conjugate (ADC) group and antibody group samples were added separately at 100 L/tube, achieving a final sample concentration of 150 nM. The mixtures were thoroughly mixed and then incubated at 4° C. in the dark for 1 h. (4) The mixtures were washed twice with pre-cooled PBS and centrifuged at 1200 rpm for 5 min at 4° C., and then the supernatants were discarded. (5) Complete medium was added at 300 μL/tube to resuspend the cells, and the cell suspensions were separately transferred to new EP tubes at 150 L/tube, with one tube kept at 4° C. and the other incubated at 37° C. (6) After 2 h, 4 h, and 22 h, 50 L of cell suspension was collected from each of the 4° C. and 37° C. tubes, transferred to new EP tubes, mixed with 1 mL of pre-cooled PBS, and centrifuged at 1200 rpm for 5 min at 4° C., and then the supernatants were discarded. […] (9) Pre-cooled PBS was then added at 100 L/tube to resuspend the cells, and the cell suspensions were analyzed on a machine. (10) The internalization rate was calculated using the following formula: Internalization (%)=positive rate4° C. […]

Assay [9] relates to MC38 tumor. Kind of assay: C57BL/6J mouse MC38 tumor model, ADC vs naked antibody (18.1). Format: in vivo. To be noted: 10 mg/kg intraperitoneal, three times per week, day 7 post-administration. The protocol: 18.1. The specific procedures were as follows: On the day of cell inoculation, each C57BL/6J mouse was subcutaneously inoculated with 3×10^5 MC38 cells (0.1 mL/mouse). When the average tumor volume in mice reached about 70-80 mm^3, grouping was performed. A total of 24 mice were divided into 3 groups, and drug administration began on the day of grouping. The administration regimen was three times per week, and the route of administration was intraperitoneal injection. […] The vehicle control group was intraperitoneally injected with an equivalent volume of PBS solution. After the start of administration, the body weight and tumor volume were measured three times per week. The tumor volume was calculated as: tumor volume (mm^3)=0.5×long diameter of tumor×(short diameter of tumor)^2. The experiment was terminated on day 7 post-administration. All mice were euthanized, and tumor tissues were collected and weighed.

[10] abbreviates: Table 3-1, ligand hPD-L1-His captured.

Several values for one entry are separate records, joined by “and”; a condition that tells them apart may be missing. Identical values can stand only once.

Sequence of hPD-L1-his (Q9NZQ7 19-290): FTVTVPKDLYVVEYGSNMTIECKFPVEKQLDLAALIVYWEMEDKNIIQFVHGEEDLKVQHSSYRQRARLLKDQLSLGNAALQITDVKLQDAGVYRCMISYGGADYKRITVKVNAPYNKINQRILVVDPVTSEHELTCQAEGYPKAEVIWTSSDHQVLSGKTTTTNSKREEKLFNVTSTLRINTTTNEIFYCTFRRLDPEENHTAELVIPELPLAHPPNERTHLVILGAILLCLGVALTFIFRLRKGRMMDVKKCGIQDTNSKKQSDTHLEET
Sequence of mPD-L1-his (Q9EP73 19-290): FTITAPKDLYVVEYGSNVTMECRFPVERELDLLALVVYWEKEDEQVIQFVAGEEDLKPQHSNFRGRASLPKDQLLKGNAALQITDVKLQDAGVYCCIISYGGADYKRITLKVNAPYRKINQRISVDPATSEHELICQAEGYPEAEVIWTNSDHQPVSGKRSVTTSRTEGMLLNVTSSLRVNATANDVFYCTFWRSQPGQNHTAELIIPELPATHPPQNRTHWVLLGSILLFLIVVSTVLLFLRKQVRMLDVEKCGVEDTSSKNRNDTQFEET
Sequence of Rat PD-L1-his (D4AE25 1-290): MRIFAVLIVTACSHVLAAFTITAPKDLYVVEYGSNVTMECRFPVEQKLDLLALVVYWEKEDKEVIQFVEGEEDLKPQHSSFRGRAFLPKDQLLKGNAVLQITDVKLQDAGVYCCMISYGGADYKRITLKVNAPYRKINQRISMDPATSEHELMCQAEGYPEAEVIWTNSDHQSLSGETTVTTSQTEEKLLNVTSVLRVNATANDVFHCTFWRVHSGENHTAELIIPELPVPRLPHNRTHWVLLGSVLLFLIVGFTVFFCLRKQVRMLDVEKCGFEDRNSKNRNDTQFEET

Consider `Nc1cc(F)ccc1NC(=O)c1ccc(CNC(=O)/C=C/c2cccnc2)cc1` [Chidamide, reference compound], for which, in [1], the Inhibition % was found to be 11.73%; the OD490 is 1.0283 and 1.0841. In addition, the inhibition at 5 µM in [1] (Mus musculus, CT26, 48 h) stood at 16.1%. In [2], the Inhibition % was 14.58% and 12.16%; the OD450 was 1.9014 and 1.9554 and 1.7934. In assay [2] (Mus musculus, CT26, 48 h), this compound came in with an inhibition at 10 µM of 19.4%. The compound further gave an IC50 in assay [3] of 823 nM.
With atezolizumab [Ate antibody], in [4] (setting [10]), the “ka” value stood at 1.26e+06 M⁻¹ s⁻¹ and the “kd (1/s)” value is recorded as <10^−5 1/s. In [4] (Table 3-2, ligand hPD-L1-His), the “ka” value was found to be 2.46e+06 M⁻¹ s⁻¹ and the “kd” value is below 1e-05 s⁻¹. Besides, in assay [5], the Kd turned out to be 0.0826 nM, the “ka” value worked out at 1.58e+06 M⁻¹ s⁻¹ and the “kd” value was found to be 0.00013 s⁻¹. Also, in [6], the “ka” value amounted to 1.76e+06 M⁻¹ s⁻¹ and the “kd” value is 0.000119 s⁻¹. Further, in assay [7], the “ka” value was 2.86e+06 M⁻¹ s⁻¹ and the “kd” value stood at 0.000981 s⁻¹. Besides, the “tumor cell internalization rate” value in assay [8] is on record as “increased over time”. In [1], the Inhibition % is 4.42% and 5.66%; the OD490 is 1.1715 and 1.1587. Besides, in assay [2], the Inhibition % is 13.08% and 4.39% and 10.94%; the OD450 is 2.1282 and 1.9824 and 1.9349. For the same compound, in [9], the “tumor growth inhibition rate TGI (%)” value was 16.26% and the tumor volume was 701.09 mm^3.
